Article PMC12298104, “mRNA Expression of Two Colon Enzymes in Pre-Pubertal Gilts During a 42-Day Exposure to Zearalenone” (Toxins, 2025)

What was measured:
[1] = Concentrations of ZEN, α-ZEL and β-ZEL in colon tissue (immunoaffinity extraction, LC-MS/MS); assay type: in vivo, pre-pubertal gilts; details: for ZEN metabolites in the distal colon: gilts given 40 μg ZEN/kg BW orally daily, 42 days; for difference in mean ZEN levels between ascending and descending colon / difference in ZEN concentration in the descending colon: p ≤ 0.01
Protocol: (§1) Group E gilts were given ZEN orally at a dose of 40 μg ZEN/kg BW (Table 1). At the time of designing the experiment, the above value was equivalent to the no-observed-adverse-effect level (NOAEL) stipulated in the EFSA guidelines, which is 10 times higher than the current dose. Animals from group C received a placebo. The experiment lasted 42 days. The ZEN dose was adjusted to the BW of group E animals. Zearalenone was administered in enteric-coated capsules to avoid problems with uneven food intake. On each day of the experiment, the mycotoxin was administered orally before the morning feeding. Feed was used as a vector. Group C gilts received a placebo, i.e., the same gastro-resistant capsules with the vector, but without ZEN. Zearalenone was dissolved in 500 μL of 96% C2H5OH (96% ethyl, SWW 2442-90, Polskie Odczynniki Chemiczne SA, Gliwice, Poland) to obtain the dose needed (adjusted to BW). The obtained solutions were stored at a temperature of 20 °C for 12 h. Pre-pubertal gilts were weighed once a week to adjust ZEN doses to the needs of each animal. Three gilts from each experiment group were killed on day 7 (1st week of exposure), 14 (2nd week of exposure), 21 (3rd week of exposure), 28 (4th week of exposure), 35 (5th week of exposure), and 42 (6th week of exposure). On each of the above dates, the animals were euthanized by intravenous administration of sodium pentobarbital (Fatro, Ozzano Emilia, BO, Italy). Tissue samples (approx. 1.0 cm × 1.5 cm) from the middle parts of both examined colon sections were collected immediately after cardiac arrest. Samples were washed with phosphate buffer and prepared for toxicological analyses and gene expression assessment. Laboratory analyses were conducted within one month after tissue sampling.
Zearalenone, α-ZEL, and β-ZEL were extracted from tissue samples using immunoaffinity columns (Zearala-TestTM Zearalenone Testing System, G1012, VICAM, Watertown, MA, USA) according to the manufacturer’s instructions. The eluates were placed in a water bath at 50 °C and evaporated in nitrogen stream. Until chromatographic analysis, the dry residues were stored at −20 °C. The results were verified by mass spectrometry and the procedure was monitored using internal standards.
ZEN, α-ZEL, and β-ZEL tissue concentrations were determined using an Agilent 1260 liquid chromatograph (LC) and an Agilent 6470 mass spectrometer (MS). The prepared samples were analyzed using an Agilent ZORBAX high-resolution HPLC column (Agilent Eclipse Plus C18; 2.1 × 50 mm, 1.8 µm) in a gradient elution program. The mobile phase consisted of 0.1% (v/v) formic acid dissolved in water (solvent A) and 0.1% (v/v) formic acid dissolved in acetonitrile (solvent B). The gradient program began with 20% B, which was increased to 100% B after 4.0 min and decreased to 20% B after 0.1 min.
Mycotoxins were quantified using external standards and were expressed in ppb (ng/mL). Calibration standards are fitted to the detector to eliminate detector influences that may reduce test sensitivity. Following the procedure described for the remaining samples, calibration standards were dissolved in the matrix samples (matrix-matched calibration). The material for the preparation of calibration standards was free from mycotoxins. The signal-to-noise ratio (3:1) was […] for ZEN, α-ZEL, and β-ZEL. The LOQ was defined as three times the LOD.
Electrospray ionization (ESI) mass spectrometry was performed in negative ion mode. MS/MS indices were optimized for all compounds. Using a six-level calibration curve, linearity was assessed.
The results were statistically processed at the Department of Discrete Mathematics and Theoretical Computer Science, Faculty of Mathematics and Computer Science of the University of Warmia and Mazury in Olsztyn. […]

[2] = Clinical signs during the 42-day exposure; assay type: in vivo, pre-pubertal gilts; details: 40 μg ZEN/kg BW orally daily for 42 days
Protocol: as §1, with “On each of the above dates, the animals were euthanized by intravenous administration of sodium pentobarbital (Fatro, Ozzano Emilia, BO, Italy). Tissue samples (approx. 1.0 cm × 1.5 cm) from the middle parts of both examined colon sections were collected immediately after cardiac arrest. Samples were washed with phosphate buffer and prepared for toxicological analyses and gene expression assessment. Laboratory analyses were conducted within one month after tissue sampling.” left out

[3] = system: CYP1A1 gene; experiment: CYP1A1 mRNA expression in the ascending and descending colon (qPCR); assay type: in vivo, pre-pubertal gilts; set-up: difference in CYP1A1 gene expression between groups C and E: scale not given here; details: for mean CYP1A1 gene expression during the entire experiment (expression ratio vs control at start = 1.00): group E
Protocol: as §1
(§2) Colon tissue samples were collected immediately after cardiac arrest. According to the manufacturer’s instructions (Sigma-Aldrich, Taufkirchen, Germany), samples were stored in RNAlater solution.
(§3) According to the manufacturer’s protocol, total RNA was extracted from tissues preserved in RNAlater (ca. 20 mg per sample; […] in each group) using the Total RNA Mini kit (A&A Biotechnology, Gdynia, Poland). RNA samples were incubated in ribonuclease-free DNAse I (Roche Diagnostics, Mannheim, Germany) to prevent contamination with genomic DNA. Overall RNA quality and purity from all samples were assessed using a BioPhotometer (Eppendorf, Germany) and the results were used for cDNA synthesis using the RevertAid™ First Strand cDNA Synthesis Kit (Fermentas, Burlington, ON, Canada). According to the manufacturer’s protocol, the reaction was performed using a cDNA synthesis reaction mixture for each sample, which consisted of 1 µg of total RNA and 0.5 µg of oligo (dT)18 primers. The first synthesized cDNA chain was stored at −20 °C pending further analysis.
Real-time PCR primers for target mRNA were designed using the Primer-BLAST tool based on reference species (Table 4). Real-time PCR was performed on an ABI 7500 Real-Time PCR system (Applied Biosystems, Foster City, CA, USA) in single plex mode; further procedures were performed according to the manufacturer’s instructions. Each PCR reaction tube contained 10 μL of the FastStart SYBR Green Master ROX mix (Roche Diagnostics), 0.25–0.5 μM of each primer (forward and reverse; Table 4), and 1 μL of the previously synthesized cDNA as a template, supplemented with PCR-grade H2O to a final volume of 20 μL. The reaction was performed under the following standard thermal conditions: 95 °C for 10 min, followed by 45 cycles of 95 °C for 15 s and 60 °C for 1 min. Negative water controls (NTCs) were included to rule out cross-contamination. The quality of PCR products was verified by melting curve analysis, followed by agarose gel electrophoresis. The specificity of the designed primer pairs was confirmed by sequencing the obtained PCR products ([…]). […]

[4] = system: GSTπ1 gene; experiment: GSTπ1 mRNA expression in the ascending and descending colon (qPCR); assay type: in vivo, pre-pubertal gilts; details: for difference in GSTπ1 gene expression between groups C and E: p ≤ 0.05; for average expression of the GSTπ1 gene during the entire experiment (expression ratio vs control at start = 1.00): group E
Protocol: as §1, §2, §3
Real-time PCR primers for target mRNA were designed using the Primer-BLAST tool based on reference species (Table 4). Real-time PCR was performed on an ABI 7500 Real-Time PCR system (Applied Biosystems, Foster City, CA, USA) in single plex mode; further procedures were performed according to the manufacturer’s instructions. Each PCR reaction tube contained 10 μL of the FastStart SYBR Green Master ROX mix (Roche Diagnostics), 0.25–0.5 μM of each primer (forward and reverse; Table 4), and 1 μL of the previously synthesized cDNA as a template, supplemented with PCR-grade H2O to a final volume of 20 μL. […]

[5] = set-up: method as in PMID 25283475; details: value at the time of designing the experiment; 10 times higher than the current dose; cited from earlier work
[6] = cited from earlier work

SMILES: C[C@H]1CCC[C@@H](O)CCC/C=C/c2cc(O)cc(O)c2C(=O)O1 [β-ZEL, β-zearalenol]
- ZEN metabolites in the distal colon [1]: no ZEN metabolites (α-ZEL and β-ZEL) were found

SMILES: C[C@H]1CCC[C@H](O)CCC/C=C/c2cc(O)cc(O)c2C(=O)O1 [α-ZEL, α-zearalenol]
- ZEN metabolites in the distal colon [1]: no ZEN metabolites (α-ZEL and β-ZEL) were found

SMILES: C[C@H]1CCCC(=O)CCC/C=C/c2cc(O)cc(O)c2C(=O)O1 [ZEN, Zearalenone]
- clinical signs of zearalenone mycotoxicosis [2]: No clinical signs
- difference in CYP1A1 gene expression between groups C and E ([3]; ascending colon, week 4, p ≤ 0.01): 0.98
- difference in CYP1A1 gene expression between groups C and E ([3]; ascending colon, week 5, p ≤ 0.01): 1.16
- difference in CYP1A1 gene expression between groups C and E ([3]; descending colon, week 1, higher in group C, p ≤ 0.01): 0.41
- difference in CYP1A1 gene expression between groups C and E ([3]; descending colon, week 2, higher in group C, p ≤ 0.05): 0.14
- difference in CYP1A1 gene expression between groups C and E ([3]; descending colon, week 3, higher in group E, p ≤ 0.05): 0.13
- difference in CYP1A1 gene expression between groups C and E ([3]; descending colon, week 5, higher in group C, p ≤ 0.05): 0.24
- mean CYP1A1 gene expression during the entire experiment (expression ratio vs control at start = 1.00) ([3]; ascending colon, group C 0.99): 0.73
- mean CYP1A1 gene expression during the entire experiment (expression ratio vs control at start = 1.00) ([3]; descending colon, group C 0.57): 0.43
- difference in GSTπ1 gene expression between groups C and E ([4]; ascending colon, week 1, higher in group C): 0.35
- difference in GSTπ1 gene expression between groups C and E ([4]; descending colon, week 2, lower in group E): 0.27
- difference in GSTπ1 gene expression between groups C and E ([4]; descending colon, week 6, lower in group E): 0.34
- average expression of the GSTπ1 gene during the entire experiment (expression ratio vs control at start = 1.00) ([4]; ascending colon, group C 0.96): 0.39
- average expression of the GSTπ1 gene during the entire experiment (expression ratio vs control at start = 1.00) ([4]; descending colon, group C 1.07): 0.94
- ZEN strength in the ascending colon, on average ([1]; 40 μg ZEN/kg BW orally daily, average over each week of exposure (weeks 1-6)): 2.09 ng ZEN/g
- mean ZEN strength in the descending colon, on average ([1]; 40 μg ZEN/kg BW orally daily, first three weeks of exposure): 6.4 ng ZEN/g
- concentration at 4 week of exposure ([1]; female, pig, descending colon tissue, po, 40 μg ZEN/kg BW orally daily, week 4): 205 ng/g
- concentration at 5 week of exposure ([1]; female, pig, descending colon tissue, po, 40 μg ZEN/kg BW orally daily, week 5): 177 ng/g
- concentration at 6 week of exposure ([1]; female, pig, descending colon tissue, po, 40 μg ZEN/kg BW orally daily, week 6): 112 ng/g
- difference in mean ZEN levels between ascending and descending colon ([1]; week 4): 200.33 ng ZEN/g
- difference in ZEN concentration in the descending colon ([1]; week 4 vs week 1): 200.31 ng ZEN/g
- difference in ZEN concentration in the descending colon ([1]; week 4 vs week 2): 198.21 ng ZEN/g
- difference in ZEN concentration in the descending colon ([1]; week 4 vs week 3): 197.44 ng ZEN/g
- difference in mean ZEN levels between ascending and descending colon ([1]; week 5): 173.61 ng ZEN/g
- difference in ZEN concentration in the descending colon ([1]; week 5 vs week 1): 172.31 ng ZEN/g
- difference in ZEN concentration in the descending colon ([1]; week 5 vs week 2): 170.21 ng ZEN/g
- difference in mean ZEN levels between ascending and descending colon ([1]; week 6): 109.55 ng ZEN/g
- no-observed-adverse-effect level (NOAEL) [5]: 40 μg ZEN/kg BW
- solubility in fats and alkaline aqueous solutions ([6]; fats and alkaline aqueous solutions): soluble in fats and alkaline aqueous solutions
- solubility in water ([6]; water): almost insoluble in water
